# Source: paper PMC6150365, “Simultaneous Determination of Seven Components in Rat Plasma by the UPLC-MS/MS Method and Application of Pharmacokinetic Studies to SimiaoYong’an Decoction” (Molecules : A Journal of Synthetic Chemistry and Natural …, 2017)
# Assay: in vivo
# Conditions: male, Sprague-Dawley, rat, po; for MRT last: MRT(0–t); for MRT inf: MRT(0–∞); for half-life: t1/2
# Protocol: Pieces of LJ, SN, AS and GU were weighed according to the proportion of 3:3:2:1 with appropriate amounts. The mixed pieces were crushed and decocted two times (60 min each time) with water (1:10 w/v) after being soaked for 60 min. The decoctions were then combined and condensed to the concentration of 0.5 g/mL, after which 95% ethanol was slowly added to the concentrate until a final ethanol concentration of 70% was reached. The SYD solution was set at room temperature overnight and then was filtered. The solvent was recovered, and the residue was dried under reduced pressure. A certain amount of the water extract of SYD was weighed and then dissolved with purified water for intragastric (oral) administration solution. The single herbs and different combination groups such as LJ, SN, AS, GU, LJ + SN, LJ + AS, LJ + GU, SN + AS, SN + GU, AS + GU, LJ + SN + AS, LJ + SN + GU, LJ + AS + GU and SN + AS + GU were prepared according to the procedure of SYD.
# Male Sprague-Dawley (SD) rats (body weight 250 ± 10 g) were supplied by the SPF (Beijing) Biotechnology Co., Ltd. (Certificate No.: SCXK 2016-0002, Beijing, China). The animals were maintained in controlled conditions (temperature 20–25 °C, relative humidity 55–60% and 12-h light/12-h dark cycle) with free access to standard laboratory food and water for seven days of acclimation and then fasted for 12 h before each experiment but allowed to drink freely during this time.
# Ninety male SD rats were randomly separated into 15 groups and administered a dosage of extract via gastric gavage once per day; detailed information about the oral daily dose of SYD extract and the corresponding single and combined TCMs (LJ, SN, AS, GU, LJ + SN, LJ + AS, LJ + GU, SN + AS, SN + GU, AS + GU, LJ + SN + AS, LJ + SN + GU, LJ + AS + GU, SN + AS + GU and SYD) is listed in Table 4.
# Each plasma sample (200 μL) with 50 μL IS solution added was spiked into 100 μL 1% formic acid distilled water solution and then vortexed for 1 min. Protein was precipitated by adding 600 μL of methanol to the mixture. After being vortexed and sonicated, the samples were centrifuged at 25,000 r/min, 4 °C for 10 min. The supernatant of each sample was transferred to a new 2-mL centrifuge tube and evaporated to dryness by N2 at 40 °C. Finally, the residue was dissolved in 100 μL methanol–water (1:1, v/v), followed by centrifugation at 30,000 r/min, 4 °C for 10 min, and 10-μL supernatant aliquots were injected into the UPLC-MS/MS system for analysis.
# The SYD was decomposed into 15 groups of compatibility combinations (LJ, SN, AS, GU, LJ + SN, LJ + AS, LJ + GU, SN + AS, SN + GU, AS + GU, LJ + SN + AS, LJ + SN + GU, LJ + AS + GU, SN + AS + GU and SYD). The 15 combinations were weighed according to the proportion of 3:3:2:1 with appropriate amounts and prepared by the method described in “Section 3.2”. Six male SD rats (body weight 250 ± 10 g) of each compatibility group were used in the pharmacokinetic study. After 12-h fast, rats of the different groups were orally administered the respective extract dissolved in saline (Table 4). Venous blood (0.45 mL) was obtained from the orbit vein and collected in heparin-pretreated polypropylene centrifuge tubes at 0.083 h, 0.17 h, 0.25 h, 0.50 h, 0.75 h, 1.0 h, 1.5 h, 2.0 h, 3.0 h, 4.0 h, 6.0 h, 8.0, 12 h and 24 h post-dose. The plasma was separated by centrifugation at 8000 r/min for 10 min and then stored at −20 °C until analysis. The amount of each analyte in the plasma was estimated by UPLC-MS/MS analysis as described in Section 3.5.
# Non-compartmental methods using Phoenix WinNonlin 7.0 software provided by the Beijing University of Chinese Medicine were used to analyze plasma concentration versus time profiles and to estimate the following pharmacokinetic parameters: terminal elimination half-lives (t1/2), area under the plasma concentration versus time curve from zero to last sampling time (AUC), and the mean residence time (MRT).
smiles,measurement,setting,value
"C=C[C@H]1[C@H](O[C@@H]2O[C@H](CO)[C@@H](O)[C@H](O)[C@H]2O)OC=C2C(=O)OCC[C@H]21 [Sweroside, sweroside]",AUC(0-t),2.15 g/kg,6900 ± 2660 ng·h/mL
same,AUC(0-inf),2.15 g/kg,7860 ± 4080 ng·h/mL
same,Cmax,2.15 g/kg,2920 ± 1770 ng/mL
same,MRT last,2.15 g/kg,4.46 ± 1.2 h
same,MRT inf,2.15 g/kg,7.5 ± 5.21 h
same,Tmax,2.15 g/kg,0.96 ± 0.58 h
same,half-life,2.15 g/kg,7.39 ± 6.33 h
same,AUC(0-t),8.25 g/kg,4490 ± 280 ng·h/mL
same,AUC(0-inf),8.25 g/kg,4530 ± 290 ng·h/mL
same,Cmax,8.25 g/kg,1970 ± 700 ng/mL
same,MRT last,8.25 g/kg,3.3 ± 0.39 h
same,MRT inf,8.25 g/kg,3.53 ± 0.29 h
same,Tmax,8.25 g/kg,1.33 ± 0.49 h
same,half-life,8.25 g/kg,4.14 ± 1.46 h
